Assay results: ChEMBL document CHEMBL6087440, “Catalytic Lysine745 targeting strategy in fourth-generation EGFR tyrosine kinase inhibitors to address C797S mutation resistance” (Eur J Med Chem, 2025)
pIC50: −log10 of the molar value.

What was measured:
[1] = molecular target: Epidermal growth factor receptor (Homo sapiens, UniProt P00533); experiment: Inhibition of wild type EGFR (unknown origin)
[2] = molecular target: Epidermal growth factor receptor (Homo sapiens, UniProt P00533, C797S/L858R/T790M); experiment: Inhibition of EGFR L858R/T790M/C797S triple mutant (unknown origin)
Epidermal growth factor receptor (Homo sapiens, UniProt P00533, C797S/L858R/T790M), sequence (P00533 25-1210 T790M/C797S/L858R limits assumed): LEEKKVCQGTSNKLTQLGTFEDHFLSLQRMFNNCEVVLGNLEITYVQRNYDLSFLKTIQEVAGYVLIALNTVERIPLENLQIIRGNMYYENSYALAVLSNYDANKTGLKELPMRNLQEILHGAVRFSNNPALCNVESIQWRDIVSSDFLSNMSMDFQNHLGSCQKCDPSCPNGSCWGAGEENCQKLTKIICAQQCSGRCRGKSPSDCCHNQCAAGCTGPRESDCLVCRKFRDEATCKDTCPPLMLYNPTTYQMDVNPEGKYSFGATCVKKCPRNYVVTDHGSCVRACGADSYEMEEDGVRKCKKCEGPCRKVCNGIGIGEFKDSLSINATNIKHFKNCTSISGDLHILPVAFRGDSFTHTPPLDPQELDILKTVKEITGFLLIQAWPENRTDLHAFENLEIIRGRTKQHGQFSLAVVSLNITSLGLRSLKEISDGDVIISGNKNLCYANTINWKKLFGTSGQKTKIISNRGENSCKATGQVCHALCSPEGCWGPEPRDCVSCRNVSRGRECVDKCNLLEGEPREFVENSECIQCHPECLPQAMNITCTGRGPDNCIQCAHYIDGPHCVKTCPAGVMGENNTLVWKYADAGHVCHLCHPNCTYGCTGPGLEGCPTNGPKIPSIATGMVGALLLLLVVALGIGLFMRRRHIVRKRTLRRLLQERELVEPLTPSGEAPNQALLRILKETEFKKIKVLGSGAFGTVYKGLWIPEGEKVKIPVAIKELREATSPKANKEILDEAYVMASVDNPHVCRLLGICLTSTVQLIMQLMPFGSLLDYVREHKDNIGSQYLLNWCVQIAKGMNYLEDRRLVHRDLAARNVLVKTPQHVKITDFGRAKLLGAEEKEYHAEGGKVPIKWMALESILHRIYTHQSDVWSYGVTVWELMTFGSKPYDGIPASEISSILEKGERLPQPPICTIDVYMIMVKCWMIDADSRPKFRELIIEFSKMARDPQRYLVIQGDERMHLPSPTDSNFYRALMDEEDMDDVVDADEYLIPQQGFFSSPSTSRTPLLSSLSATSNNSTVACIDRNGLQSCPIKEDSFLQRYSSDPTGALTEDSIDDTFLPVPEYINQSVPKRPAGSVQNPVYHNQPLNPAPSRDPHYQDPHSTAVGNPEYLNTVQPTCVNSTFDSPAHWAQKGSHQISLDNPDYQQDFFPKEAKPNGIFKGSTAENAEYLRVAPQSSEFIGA

[3] = molecular target: Epidermal growth factor receptor (Homo sapiens, UniProt P00533, C797S/EX19DEL/T790M); experiment: Inhibition of EGFR del19/T790M/C797S triple mutant (unknown origin) in presence of ATP by FRET assay
Epidermal growth factor receptor (Homo sapiens, UniProt P00533, C797S/EX19DEL/T790M), sequence (P00533 whole entry, looked up, stated change not applied): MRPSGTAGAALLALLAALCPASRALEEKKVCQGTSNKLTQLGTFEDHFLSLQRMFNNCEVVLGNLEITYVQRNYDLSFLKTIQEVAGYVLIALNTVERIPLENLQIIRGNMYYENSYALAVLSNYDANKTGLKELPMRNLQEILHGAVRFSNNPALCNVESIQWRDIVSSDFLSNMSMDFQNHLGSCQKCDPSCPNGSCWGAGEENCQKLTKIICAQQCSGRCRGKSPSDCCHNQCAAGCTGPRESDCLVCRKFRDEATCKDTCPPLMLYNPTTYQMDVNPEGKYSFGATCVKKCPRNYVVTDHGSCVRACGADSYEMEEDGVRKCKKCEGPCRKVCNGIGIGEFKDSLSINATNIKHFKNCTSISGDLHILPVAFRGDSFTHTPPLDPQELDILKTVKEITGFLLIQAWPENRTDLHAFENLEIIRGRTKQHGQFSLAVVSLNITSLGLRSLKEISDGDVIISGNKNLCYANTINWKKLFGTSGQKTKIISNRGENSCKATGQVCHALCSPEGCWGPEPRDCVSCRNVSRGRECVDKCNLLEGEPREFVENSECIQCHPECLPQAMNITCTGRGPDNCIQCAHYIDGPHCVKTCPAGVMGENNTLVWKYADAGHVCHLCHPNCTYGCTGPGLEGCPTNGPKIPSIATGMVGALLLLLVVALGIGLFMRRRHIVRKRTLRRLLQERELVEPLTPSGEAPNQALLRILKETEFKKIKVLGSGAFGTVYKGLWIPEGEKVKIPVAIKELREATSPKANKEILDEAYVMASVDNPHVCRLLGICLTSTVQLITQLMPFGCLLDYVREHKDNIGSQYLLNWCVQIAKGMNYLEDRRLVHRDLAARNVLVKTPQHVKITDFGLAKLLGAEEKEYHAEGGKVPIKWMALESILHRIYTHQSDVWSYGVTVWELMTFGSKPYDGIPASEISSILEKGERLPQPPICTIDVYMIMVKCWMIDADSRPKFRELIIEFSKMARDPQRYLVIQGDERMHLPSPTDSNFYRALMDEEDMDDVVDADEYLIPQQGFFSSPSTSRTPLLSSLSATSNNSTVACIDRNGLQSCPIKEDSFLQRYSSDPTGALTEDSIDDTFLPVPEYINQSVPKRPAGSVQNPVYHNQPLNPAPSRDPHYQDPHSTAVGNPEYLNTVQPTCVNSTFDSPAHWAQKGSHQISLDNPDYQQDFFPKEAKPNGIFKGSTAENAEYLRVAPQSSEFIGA

[4] = molecular target: Tyrosine-protein kinase BTK (Homo sapiens, UniProt Q06187); experiment: Inhibition of wild type BTK (unknown origin) using TK as substrate incubated for 1 hr by HTRF assay
Tyrosine-protein kinase BTK, sequence (Q06187 whole entry): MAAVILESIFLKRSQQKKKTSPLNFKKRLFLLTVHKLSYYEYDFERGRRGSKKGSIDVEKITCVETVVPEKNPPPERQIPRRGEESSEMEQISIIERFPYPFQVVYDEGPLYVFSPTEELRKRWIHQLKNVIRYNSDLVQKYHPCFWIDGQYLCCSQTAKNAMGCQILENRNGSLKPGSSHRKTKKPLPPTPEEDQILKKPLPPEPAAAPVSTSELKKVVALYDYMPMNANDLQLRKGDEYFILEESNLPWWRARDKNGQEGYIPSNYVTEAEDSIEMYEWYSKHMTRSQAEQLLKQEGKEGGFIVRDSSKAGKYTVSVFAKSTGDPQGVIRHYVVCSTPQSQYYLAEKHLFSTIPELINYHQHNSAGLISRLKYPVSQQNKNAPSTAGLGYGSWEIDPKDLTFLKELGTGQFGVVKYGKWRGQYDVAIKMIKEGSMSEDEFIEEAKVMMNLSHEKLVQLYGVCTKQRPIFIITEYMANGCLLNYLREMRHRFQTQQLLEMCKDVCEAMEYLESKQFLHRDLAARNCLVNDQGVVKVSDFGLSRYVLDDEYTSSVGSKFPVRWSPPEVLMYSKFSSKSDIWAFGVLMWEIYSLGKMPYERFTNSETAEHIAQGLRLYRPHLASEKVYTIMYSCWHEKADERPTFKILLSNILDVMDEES

[5] = Antiproliferative activity against human NCI-H1975 cells harboring EGFR L858R/T790M/C797S mutant assessed as reduction in cell growth incubated for 72 hrs by SRB assay; assay type: functional, cell-based; conditions: NCI-H1975, 72 h
BaF3 = experiment: Antiproliferative activity against mouse BaF3 cells harboring EGFR L858R/T790M/C797S triple mutant assessed as inhibition of cell growth incubated for 72 hrs by CellTiter-Glo luminescent assay; assay type: functional, cell-based; conditions: BaF3, 72 h
[6] = Antiproliferative activity against human NCI-H1975 cells harboring EGFR L858R/T790M mutant assessed as cell growth inhibition incubated for 72 hrs by CellTiter Glo assay; assay type: functional, cell-based; conditions: NCI-H1975, 72 h
[7] = Antiproliferative activity against mouse Ba/F3 EGFR-T790M/C797S/L858R cells; assay type: functional, cell-based
[8] = Intrinsic clearance in human liver microsomes; assay type: ADME, Microsome
[9] = Clearance in cynomolgus monkey at 1 mg/kg, iv by LC-MS/MS analysis; assay type: ADME, organism-based, Macaca fascicularis; conditions: in vivo
A549 = experiment: Antiproliferative activity against human A549 cells harboring wild type EGFR assessed as inhibition of cell proliferation incubated for 72 hrs by CCK8 assay; assay type: functional, cell-based; conditions: A549, 72 h

Epidermal growth factor receptor (Homo sapiens, UniProt P00533), sequence (P00533 whole entry): as the sequence (P00533 whole entry, looked up, stated change not applied) above

Row | pIC50 [3] | pIC50 (BaF3) | SMILES | other results
1 | 9.72 |  | COc1cc(N2CCC(N(C)C)CC2)c(-c2cnn(C)c2)cc1Nc1ncc(Cl)c(Nc2ccccc2P(C)(C)=O)n1 | 
2 | 7.62 |  | CCS(=O)(=O)n1cc(-c2nc(Nc3cc(Cl)c(N4CCC(N5CCN(C)CC5)CC4)cc3OC)ncc2Cl)c2ccccc21 | pIC50 [2]: 6.84
3 |  | 7.54 | CCOC1CN(C2CCN(c3cc(OC)c(Nc4ncc(Br)c(Nc5ccc6nccnc6c5P(C)(C)=O)n4)cc3C)CC2)C1 | 
4 |  | 7.90 | COc1cc(N2CCC(N3CC(N(C)C)C3)CC2)c(C)cc1Nc1ncc(Br)c(Nc2ccc3nccnc3c2P(C)(C)=O)n1 | 
5 | 6.85 |  | CCS(=O)(=O)n1cc2c3ccc(cc31)OCCCCCOc1cc(ccc1N1CCOCC1)Nc1ncc(Cl)c-2n1 | 
6 | 7.48 |  | COc1cc(N2CCC(N3CCN(C)CC3)CC2)ccc1Nc1ncc(Cl)c(-c2cn(S(=O)(=O)C(C)C)c3ccccc23)n1 | pIC50 [2]: 6.65
7 | 10.10 | 8.10 | CCc1cc(Nc2ncc(Br)c(Nc3ccc4c(c3P(C)(C)=O)OCCO4)n2)c(OC)cc1N1CCC(N2CC(N(C)C)C2)CC1 | 
8 | 7.59 |  | COc1cc(N2CCC(N3CCN(C)CC3)CC2)ccc1Nc1ncc(Cl)c(-c2cn(S(=O)(=O)C3CC3)c3ccccc23)n1 | pIC50 [2]: 8.37
9 | 7.72 |  | CCS(=O)(=O)n1cc2c3cc(ccc31)OCCCCCOc1cc(ccc1N1CCOCC1)Nc1ncc(Cl)c-2n1 | 
10 | 9.82 | 7.40 | CCc1cc(Nc2ncc(Br)c(Nc3ccc4c(c3P(C)(C)=O)OCO4)n2)c(OC)cc1N1CCC(N2CC(N(C)C)C2)CC1 | pIC50 [2]: 9.40
11 | 7.24 |  | CCS(=O)(=O)n1cc2c3ccc(cc31)OCCCCCCOc1cc(ccc1N1CCOCC1)Nc1ncc(Cl)c-2n1 | 
12 |  | 6.21 | COc1cc(N2CCN(C)CC2)ccc1Nc1ncc(C(=O)OC(C)C)c(-c2cn(C)c3ccccc23)n1 | 
13 |  | 6.45 | COc1cc(N2CCC(N)CC2)ccc1Nc1ncc(C(=O)OC(C)C)c(-c2cn(C)c3ccccc23)n1 | 
14 |  | 7.75 | COc1cc(N2CCC(N3CC(C)(CO)C3)CC2)c(C)cc1Nc1ncc(Br)c(Nc2ccc3nccnc3c2P(C)(C)=O)n1 | 
15 |  | 7.90 | COc1cc(N2CCC(N3CC(CC#N)C3)CC2)c(C)cc1Nc1ncc(Br)c(Nc2ccc3nccnc3c2P(C)(C)=O)n1 | 
16 |  | 7.74 | COc1cc(N2CCC(N3CC(C(C)(C)O)C3)CC2)c(C)cc1Nc1ncc(Br)c(Nc2ccc3nccnc3c2P(C)(C)=O)n1 | 
17 |  | 7.73 | COc1cc(N2CCC(N3CC(F)(CO)C3)CC2)c(C)cc1Nc1ncc(Br)c(Nc2ccc3nccnc3c2P(C)(C)=O)n1 | 
18 |  | 7.65 | COCC1(C)CN(C2CCN(c3cc(OC)c(Nc4ncc(Br)c(Nc5ccc6nccnc6c5P(C)(C)=O)n4)cc3C)CC2)C1 | 
19 | 9.15 | 7.82 | COCC1CN(C2CCN(c3cc(OC)c(Nc4ncc(Br)c(Nc5ccc6nccnc6c5P(C)(C)=O)n4)cc3C)CC2)C1 | 
20 |  | 7.39 | COc1cc(N2CCC(N3CC(CO)C3)CC2)c(C)cc1Nc1ncc(Br)c(Nc2ccc3nccnc3c2P(C)(C)=O)n1 | 
21 |  | 8.25 | CN1CCCN(c2ccc(Nc3ncc(Br)c(Nc4ccccc4NS(=O)(=O)C4CC4)n3)cc2)CC1 | pIC50 [1]: 9.21
22 | < 6.00 |  | CCS(=O)(=O)n1cc2c3cc(ccc31)OCCCCOc1cc(ccc1N1CCOCC1)Nc1ncc(Cl)c-2n1 | 

The next lines start with the compound.

Row | SMILES | pIC50 [3] | pIC50 (BaF3) | other results
23 | C=CC(=O)Nc1ccc(OC)c(Nc2cc(-c3[nH]c(CCCO)nc3-c3ccc(F)cc3)ccn2)c1 |  |  | pIC50 [1]: 8.10
24 | OCCCc1nc(-c2ccc(F)cc2)c(-c2ccnc3[nH]c(-c4ccccc4)cc23)[nH]1 |  |  | pIC50 [1]: > 9.30
25 | CN1CCN(C2CCN(c3ccc(Nc4ncc(Cl)c(Nc5ccccc5P(C)(C)=O)n4)cc3Cl)CC2)CC1 |  |  | pIC50 [2]: 9.15
26 | CCP(=O)(CC)c1ccccc1Nc1nc(Nc2cc(-c3cnn(C)c3)c(N3CCOCC3)cc2OC)ncc1Cl | 9.70 |  | 
27 | Cc1cc(Nc2ncc(Cl)c(Nc3ccccc3P(C)(C)=O)n2)ccc1N1CCC(N2CCN(C)CC2)CC1 |  |  | pIC50 [2]: 9.22
28 | COc1cc(N2CCOCC2)c(-c2cnn(C)c2)cc1Nc1ncc(Cl)c(Nc2ccccc2P(C)(C)=O)n1 | 9.70 |  | pIC50 [4]: 8.36; pIC50 [5]: 9.91
29 | COc1cc(N2CCC(N3CCN(C)CC3)CC2)c(-c2cnn(C)c2)cc1Nc1ncc(Cl)c(Nc2ccccc2P(C)(C)=O)n1 | 9.49 |  | 
30 | COc1cc(N2CCC(N(C)C)CC2)c(-c2cn[nH]c2)cc1Nc1ncc(Cl)c(Nc2ccccc2P(C)(C)=O)n1 |  |  | pIC50 [2]: 9.30
31 | CCS(=O)(=O)n1cc2c3cc(ccc31)OCCCCCCOc1cc(ccc1N1CCOCC1)Nc1ncc(Cl)c-2n1 | 8.21 |  | 
32 | CCS(=O)(=O)n1cc2c3ccc(cc31)OCCCCCCOc1cc(c(Cl)cc1N1CCOCC1)Nc1ncc(Cl)c-2n1 | 8.21 |  | 
33 | CCS(=O)(=O)n1cc2c3ccc(cc31)OCCCCCCOc1cc(c(C3CC3)cc1N1CCOCC1)Nc1ncc(Cl)c-2n1 | 7.25 |  | 
34 | CCS(=O)(=O)n1cc2c3ccc(cc31)OCCCCCCOc1cc(c(C)cc1N1CCOCC1)Nc1ncc(Cl)c-2n1 | 7.63 |  | 
35 | CCOC1CN(C2CCN(c3cc(OC)c(Nc4ncc(Br)c(Nc5ccc6c(c5P(C)(C)=O)OCCO6)n4)cc3C)CC2)C1 |  | 7.85 | 
36 | CNC(=O)c1cnc(Nc2ccnc(N3CCC(O)CC3)n2)cc1NC(C)C |  |  | pIC50 [6]: 7.34
37 | COc1cc(N2CCC(N(C)C)CC2)ccc1Nc1ncc(C(=O)Oc2ccccc2)c(-c2c[nH]c3ccccc23)n1 |  | 8.15 | pIC50 [1]: 11.00
38 | COc1cc(N2CCN(C)CC2)ccc1Nc1ncc(C(=O)Oc2ccccc2)c(-c2cn(C)c3ccccc23)n1 |  | 7.03 | pIC50 [1]: 10.30

Row | SMILES | pIC50 [3] | pIC50 (BaF3) | other results
39 | Cc1cc(Nc2ncc(Br)c(Nc3ccccc3NS(=O)(=O)C3CC3)n2)ccc1N1CCCN(C)CC1 |  |  | pIC50 [1]: 7.15
40 | CN(C)C1CCN(c2ccc(Nc3ncc(Br)c(Nc4ccccc4NS(=O)(=O)C4CC4)n3)cc2NS(C)(=O)=O)CC1 |  |  | pIC50 [7]: 6.11
41 | Cc1cc(Nc2ncc(Cl)c(Nc3ccccc3NS(=O)(=O)C3CC3)n2)ccc1N1CCC(N(C)C)CC1 |  |  | pIC50 [1]: 8.32; pIC50 [2]: 10.52
42 | COC1CCN(c2nccc(Nc3cc4c(C(C)C)ccc(N5CC(CS(C)(=O)=O)C5C)c4cn3)n2)CC1F (stereo not given) |  |  | pIC50 [5]: 8.96; CLH [8]: 89 µL/min/mg
43 | CC(C)c1cnc(N2CC(O)C2C)c2cnc(Nc3ccnc(N4CCC(O)C(C)(F)C4)n3)cc12 (stereo not given) |  |  | pIC50 [6]: 7.70
44 | COCCCc1nc(-c2ccc(F)cc2)c(-c2ccnc3[nH]c(-c4ccccc4)cc23)[nH]1 |  |  | pIC50 [1]: 8.22; pIC50 [2]: 8.22
45 | CC(C)c1ccc(N2CC(CS(C)(=O)=O)C2C)c2cnc(Nc3ccnc(N4CCC(O)C(C)(F)C4)n3)cc12 (stereo not given) |  |  | clearance [9]: 31.8 mL/min/kg
46 | COc1cc(N2CCN(C)CC2)c(-c2cn[nH]c2)cc1Nc1ncc(Cl)c(Nc2ccccc2P(C)(C)=O)n1 | 9.64 |  | 
47 | CCS(=O)(=O)n1cc2c3cc(ccc31)OCCCCCCCCOc1cc(ccc1N1CCOCC1)Nc1ncc(Cl)c-2n1 | 7.05 |  | 
48 | CC(C)c1cnc(N2CC(CS(C)(=O)=O)C2)c2cnc(Nc3ccnc(N4CCC(O)C(C)(F)C4)n3)cc12 (stereo not given) |  |  | pIC50 (A549): 5.28
49 | C=CC(=O)Nc1ccc(OC)c(Nc2cc(-c3[nH]c(SCCOC)nc3-c3ccc(F)cc3)ccn2)c1 |  |  | pIC50 [2]: 7.46
50 | COc1cc(N2CCN(C(C)=O)CC2)ccc1Nc1nccc(Nc2ccc(Nc3ccc(S(=O)(=O)F)cc3)cc2)n1 |  |  | pIC50 [1]: 6.68; pIC50 [2]: 6.96
51 | CCS(=O)(=O)n1cc2c3cc(ccc31)OCCCCCCCOc1cc(ccc1N1CCOCC1)Nc1ncc(Cl)c-2n1 | 7.72 |  | 
52 | CNc1ncc(C(C)C)c2cc(Nc3ccnc(N4CCC(O)C(F)C4)n3)ncc12 (stereo not given) |  |  | pIC50 [6]: 7.92
53 | CC(C)c1cnc(N2CCC2)c2cnc(Nc3ccnc(N4CCC(O)C(C)(F)C4)n3)cc12 (stereo not given) |  |  | pIC50 [6]: 8.04
54 | C=CC(=O)Nc1cc(Nc2ncc(C(=O)OC(C)C)c(-c3cn(C)c4ccccc34)n2)c(OC)cc1N(C)CCN(C)C [MOBOCERTINIB] |  | 6.57 | 
